The source made the active and inactive calls. The rule behind the calls is not given here.
System: CCRIS mutagenicity, Ames/micronucleus/aberration tests
Experiment: CCRIS mutagenicity studies

Structure (SMILES): O=C1Nc2ccc(Cl)cc2C(c2ccccc2)=NC1O (configuration not stated)
- mutagenic call (End Point: IN VITRO MICRONUCLEUS, Test System: HUMAN - HUMAN AMNIOTIC FLUID FIBROBLAST-LIKE (AFFL) CELLS, Metabolic Activation: NONE): active; positive
- mutagenic call (End Point: IN VITRO MICRONUCLEUS, Test System: MOUSE LYMPHOMA L5178Y CELLS, Metabolic Activation: NONE): active; positive
- mutagenic call (End Point: IN VITRO MICRONUCLEUS, Test System: SYRIAN HAMSTER EMBRYO FIBROBLAST (SHE) CELLS, Metabolic Activation: NONE): active; positive
- mutagenic call (Test System: AMES SALMONELLA TYPHIMURIUM, Strain/Indicator: TA97, Metabolic Activation: HAMSTER, LIVER, S-9, AROCLOR 1254 (10%), Method: PREINCUBATION): inactive; negative
- mutagenic call (Test System: AMES SALMONELLA TYPHIMURIUM, Strain/Indicator: TA97, Metabolic Activation: HAMSTER, LIVER, S-9, AROCLOR 1254 (30%), Method: PREINCUBATION): inactive; negative
- mutagenic call (Test System: AMES SALMONELLA TYPHIMURIUM, Strain/Indicator: TA97, Metabolic Activation: NONE, Method: PREINCUBATION): inactive; negative
- mutagenic call (Test System: AMES SALMONELLA TYPHIMURIUM, Strain/Indicator: TA97, Metabolic Activation: RAT, LIVER, S-9, AROCLOR 1254 (30%), Method: PREINCUBATION): inactive; negative
- mutagenic call (Test System: AMES SALMONELLA TYPHIMURIUM, Strain/Indicator: TA98, Metabolic Activation: HAMSTER, LIVER, S-9, AROCLOR 1254 (10 OR 30%), Method: PREINCUBATION): inactive; negative
- mutagenic call (Test System: AMES SALMONELLA TYPHIMURIUM, Strain/Indicator: TA98, Metabolic Activation: NONE, Method: PREINCUBATION): inactive; negative
- mutagenic call (Test System: AMES SALMONELLA TYPHIMURIUM, Strain/Indicator: TA98, Metabolic Activation: NONE, Method: STANDARD PLATE): inactive; negative
- mutagenic call (Test System: AMES SALMONELLA TYPHIMURIUM, Strain/Indicator: TA98, Metabolic Activation: RAT, LIVER, S-9, AROCLOR 1254 (10 OR 30%), Method: PREINCUBATION): inactive; negative
- mutagenic call (Test System: AMES SALMONELLA TYPHIMURIUM, Strain/Indicator: TA98, Metabolic Activation: RAT, LIVER, S-9, AROCLOR 1254, Method: STANDARD PLATE): inactive; negative
- mutagenic call (Test System: AMES SALMONELLA TYPHIMURIUM, Strain/Indicator: TA100, Metabolic Activation: HAMSTER, LIVER, S-9, AROCLOR 1254 (10%), Method: PREINCUBATION): inactive; negative
- mutagenic call (Test System: AMES SALMONELLA TYPHIMURIUM, Strain/Indicator: TA100, Metabolic Activation: HAMSTER, LIVER, S-9, AROCLOR 1254 (30%), Method: PREINCUBATION): inactive; negative
- mutagenic call (Test System: AMES SALMONELLA TYPHIMURIUM, Strain/Indicator: TA100, Metabolic Activation: NONE, Method: PREINCUBATION): inactive; negative
- mutagenic call (Test System: AMES SALMONELLA TYPHIMURIUM, Strain/Indicator: TA100, Metabolic Activation: NONE, Method: STANDARD PLATE): inactive; negative
- mutagenic call (Test System: AMES SALMONELLA TYPHIMURIUM, Strain/Indicator: TA100, Metabolic Activation: RAT, LIVER, S-9, AROCLOR 1254 (10%), Method: PREINCUBATION): inactive; negative
- mutagenic call (Test System: AMES SALMONELLA TYPHIMURIUM, Strain/Indicator: TA100, Metabolic Activation: RAT, LIVER, S-9, AROCLOR 1254 (30%), Method: PREINCUBATION): inactive; negative
- mutagenic call (Test System: AMES SALMONELLA TYPHIMURIUM, Strain/Indicator: TA100, Metabolic Activation: RAT, LIVER, S-9, AROCLOR 1254, Method: STANDARD PLATE): inactive; negative
- mutagenic call (Test System: AMES SALMONELLA TYPHIMURIUM, Strain/Indicator: TA102, Metabolic Activation: HAMSTER, LIVER, S-9, AROCLOR 1254 (10%), Method: PREINCUBATION): inactive; negative
- mutagenic call (Test System: AMES SALMONELLA TYPHIMURIUM, Strain/Indicator: TA102, Metabolic Activation: HAMSTER, LIVER, S-9, AROCLOR 1254 (30%), Method: PREINCUBATION): inactive; negative
- mutagenic call (Test System: AMES SALMONELLA TYPHIMURIUM, Strain/Indicator: TA102, Metabolic Activation: NONE, Method: PREINCUBATION): inactive; negative
- mutagenic call (Test System: AMES SALMONELLA TYPHIMURIUM, Strain/Indicator: TA102, Metabolic Activation: RAT, LIVER, S-9, AROCLOR 1254 (10%), Method: PREINCUBATION): inactive; negative
- mutagenic call (Test System: AMES SALMONELLA TYPHIMURIUM, Strain/Indicator: TA102, Metabolic Activation: RAT, LIVER, S-9, AROCLOR 1254 (30%), Method: PREINCUBATION): inactive; negative
- mutagenic call (Test System: AMES SALMONELLA TYPHIMURIUM, Strain/Indicator: TA1535, Metabolic Activation: HAMSTER, LIVER, S-9, AROCLOR 1254 (10%), Method: PREINCUBATION): inactive; negative
- mutagenic call (Test System: AMES SALMONELLA TYPHIMURIUM, Strain/Indicator: TA1535, Metabolic Activation: HAMSTER, LIVER, S-9, AROCLOR 1254 (30%), Method: PREINCUBATION): inactive; negative
- mutagenic call (Test System: AMES SALMONELLA TYPHIMURIUM, Strain/Indicator: TA1535, Metabolic Activation: NONE, Method: PREINCUBATION): inactive; negative
- mutagenic call (Test System: AMES SALMONELLA TYPHIMURIUM, Strain/Indicator: TA1535, Metabolic Activation: NONE, Method: STANDARD PLATE): inactive; negative
- mutagenic call (Test System: AMES SALMONELLA TYPHIMURIUM, Strain/Indicator: TA1535, Metabolic Activation: RAT, LIVER, S-9, AROCLOR 1254 (10%), Method: PREINCUBATION): inactive; negative
- mutagenic call (Test System: AMES SALMONELLA TYPHIMURIUM, Strain/Indicator: TA1535, Metabolic Activation: RAT, LIVER, S-9, AROCLOR 1254 (30%), Method: PREINCUBATION): inactive; negative
- mutagenic call (Test System: AMES SALMONELLA TYPHIMURIUM, Strain/Indicator: TA1535, Metabolic Activation: RAT, LIVER, S-9, AROCLOR 1254, Method: STANDARD PLATE): inactive; negative
- mutagenic call (Test System: AMES SALMONELLA TYPHIMURIUM, Strain/Indicator: TA1537, Metabolic Activation: NONE, Method: STANDARD PLATE): inactive; negative
- mutagenic call (Test System: AMES SALMONELLA TYPHIMURIUM, Strain/Indicator: TA1537, Metabolic Activation: RAT, LIVER, S-9, AROCLOR 1254, Method: STANDARD PLATE): inactive; negative

Structure (SMILES): Cc1c(N)nc(C)c2c1[nH]c1ccccc12
- mutagenic call (Test System: AMES SALMONELLA TYPHIMURIUM, Strain/Indicator: TA98, Metabolic Activation: HUMAN, BLOOD, CYTOSOL, Method: PREINCUBATION): active; positive
- mutagenic call (Test System: AMES SALMONELLA TYPHIMURIUM, Strain/Indicator: TA98, Metabolic Activation: MONKEY, LIVER, S-9, Method: PREINCUBATION): active; positive
- mutagenic call (Test System: AMES SALMONELLA TYPHIMURIUM, Strain/Indicator: TA98, Metabolic Activation: MOUSE, LIVER, MICROSOMES, TCDD, Method: STANDARD PLATE): active; positive
- mutagenic call (Test System: AMES SALMONELLA TYPHIMURIUM, Strain/Indicator: TA98, Metabolic Activation: MOUSE, LIVER, MICROSOMES, Method: STANDARD PLATE): active; positive
- mutagenic call (Test System: AMES SALMONELLA TYPHIMURIUM, Strain/Indicator: TA98, Metabolic Activation: RAT, BLADDER, S-9, PCB, Method: FLUCTUATION TEST): active; positive
- mutagenic call (Test System: AMES SALMONELLA TYPHIMURIUM, Strain/Indicator: TA98, Metabolic Activation: RAT, HEPATOCYTES, AROCLOR 1254, Method: PREINCUBATION): active; positive
- mutagenic call (Test System: AMES SALMONELLA TYPHIMURIUM, Strain/Indicator: TA98, Metabolic Activation: RAT, LIVER, S-9, AROCLOR 1254, Method: PREINCUBATION): active; positive
- mutagenic call (Test System: AMES SALMONELLA TYPHIMURIUM, Strain/Indicator: TA100, Metabolic Activation: RAT, BLADDER, S-9, PCB, Method: FLUCTUATION TEST): active; positive
- mutagenic call (Test System: AMES SALMONELLA TYPHIMURIUM, Strain/Indicator: TA100, Metabolic Activation: RAT, LIVER, S-9, AROCLOR 1254, Method: PREINCUBATION): inactive; negative
- mutagenic call (Test System: AMES SALMONELLA TYPHIMURIUM, Strain/Indicator: YG1019, Metabolic Activation: RAT LIVER S-9, AROCLOR, Method: PREINCUBATION): active; positive
- mutagenic call (Test System: CHINESE HAMSTER V-79, Strain/Indicator: V-79/8-AZAGUANINE, Metabolic Activation: NONE, Method: SUSPENSION/PLATE): active; positive
- mutagenic call (Test System: CHINESE HAMSTER V-79, Strain/Indicator: V-79/8-AZAGUANINE, Metabolic Activation: S-9, Method: SUSPENSION/PLATE): active; positive
- mutagenic call (Test System: CHINESE HAMSTER V-79, Strain/Indicator: V-79/OUABAIN, Metabolic Activation: NONE, Method: SUSPENSION/PLATE): inactive; negative
- mutagenic call (Test System: CHINESE HAMSTER V-79, Strain/Indicator: V-79/OUABAIN, Metabolic Activation: S-9, Method: SUSPENSION/PLATE): inactive; negative
- mutagenic call (Test System: UDS HAMSTER HEPATOCYTES, Strain/Indicator: THY INCORP, Metabolic Activation: NONE, Method: LIQUID SCINTILLATION COUNTING): active; positive
- mutagenic call (Test System: UDS HUMAN HEPATOCYTES, Strain/Indicator: THY INCORP, Metabolic Activation: NONE, Method: AUTORADIOGRAPHY): active; positive
- mutagenic call (Test System: UDS MOUSE HEPATOCYTES, Strain/Indicator: THY INCORP, Metabolic Activation: NONE, Method: AUTORADIOGRAPHY): active; positive
- mutagenic call (Test System: UDS RAT HEPATOCYTES, Strain/Indicator: THY INCORP, Metabolic Activation: NONE, Method: AUTORADIOGRAPHY): inactive; negative
- mutagenic call (Test System: UDS RAT HEPATOCYTES, Strain/Indicator: THY INCORP, Metabolic Activation: NONE, Method: LIQUID SCINTILLATION COUNTING): inactive; negative
